In series [1] the test system is CT-26 cells. Briefly: CT-26 syngeneic Balb/c mouse tumor model, tumor growth. The format is in vivo. As to conditions: CT-26 syngeneic mouse model.
Method: CT-26 cells (0.5×10^6) were injected subcutaneously into the flanks of Balb/c mice (n=4-7) on day 0. When tumor volume reaches approximately 45 mm^3, the mice were injected (i.p.) anti-PD-1, 200 μg/mouse, twice per week. Aldose reductase inhibitor (ARI) (25 mg/kg/day) were given in drinking water or by gavage. CT26 tumor were left untreated (Con) or treated with fidarestat (Fid), anti-PD-1 (PD1) or combination of both (Combo). Con mice were also treated with isotype matched control antibodies (PD-1 iso). Tumor growth was measured twice per week and animals were euthanized when the tumor volume reaches 2000 mm^3 in the control mice (˜30 days). Tumor volume (A) and tumor weight (B) were measured. Data Mean S.E.M. P<0.05; *P<0.05; **P<0.01 by one-way ANOVA followed by Dunnet and Tukey's multiple comparison test.
Series [2] deals with MC38 cells. Briefly: MC38 subcutaneous tumor model in C57BL/6 WT and ARKO mice, tumor growth. Type of series: in vivo, mouse. As to conditions: both the CRC models (CT26 and MC38). On the procedure: FIG. 7A-7D: AR deficiency/inhibition increases the efficacy of anti-PD1, decreases immune-related toxicities induced by anti-PD1 in CRC model, MC38. MC38 cells were inoculated subcutaneous in C57BL/6 WT and aldose reductase knockout (ARKO) mice. When tumors became palpable (approximately 40-43 mm^3), mice were randomized and treated with anti-PD-1 (twice a week), AR inhibitor (25 mg/kg/day in drinking water). MC38 tumor was left untreated in Con WT and ARKO or treated with Fid in WT, anti-PD-1 (PD1) in WT and ARKO or combination of both (Combo) in WT mice. Con WT and ARKO mice were also treated with isotype controls (PD-1 iso). […] Tumor growth was measured twice a week and animals were euthanized when the tumor volume reaches 2000 mm^3 in the control mice (approximately 27 days). […] Isolated TILs from tumors were analyzed by flow cytometry for intracellular staining of IFN-γ and granzyme B to analyze the effector function of CD8^+ T and NK cells in TILs. […]
MC38 cells were inoculated subcutaneous in C57BL/6 WT and aldose reductase knockout (ARKO) mice. […] Tumor growth was measured twice a week and animals were euthanized when the tumor volume reaches 2000 mm^3 in the control mice (approximately 27 days). […] Isolated TILs from tumors were analyzed by flow cytometry for intracellular staining of IFN-γ and granzyme B to analyze the effector function of CD8^+ T and NK cells in TILs. […]

In series [3] the test system is colorectal cancer cells. The experiment in a line: Sensitivity of colorectal cancer cells to doxorubicin. Conditions: earlier studies of the inventors. The format is cell-based. The text has this: The inventors have also shown that AR inhibition prevents colorectal cancer cells growth in tissue culture, nude mouse xenografts, and chemically-induced animal models of colorectal cancer. Based on these studies, the inventors investigated whether an AR inhibitor such as fidarestat could be used as combination therapy along with immune checkpoint inhibitor such as an anti-PD1 antibody resulting in an increase in the immunotherapeutic efficacy of anti-PD1 and prevent CRC growth.

The nature of series [4]: Cardiotoxicity associated with anthracycline drugs. As to conditions: earlier studies of the inventors.
The conditions of series [5]: Phase-III clinical trial, diabetic nephropathy; cited from earlier work.

Consider `NC(=O)[C@@H]1C[C@]2(NC(=O)NC2=O)c2cc(F)ccc2O1` [fidarestat, (2S,4S)-6-fluoro-2′,5′-dioxospiro(chroman-4,4′-imidazolidine)-2-carboxamide], for which the “sensitivity of anti-PD1 immunotherapy” value in series [1] is given as “significantly increases the sensitivity of anti-PD1 immunotherapy”. The “efficacy of anti-PD1 and tumor growth” value in series [2] was “increases the efficacy of anti-PD1 and decreases the tumor growth”. For the same compound, in series [3], the “sensitivity of colorectal cancer cells to doxorubicin” value is “increased the sensitivity”. Also, in series [4], the “cardiotoxicity associated with anthracycline drugs” value is “prevented cardiotoxicity”. Also, the side effects entry in series [5] was “no major side effects”.

(Values after patent US12090142B2, “Combination therapy for the treatment of cancer” (The Board of Regents of the University of Texas System, priority 2018, dated 2024).)
